For 24 compounds, GI50 and IC50 results are on record in US12583825B2, “Benzo[h]quinazolin-4-amine and thieno[3,2-h]quinazolin-4-amine derivatives for the treatment of cancer” (Redona Therapeutics, Inc., priority 2020, dated 2026).

One assay has as its system MDA-MB-231 cells. The experiment in a line: MDA-MB-231 proliferation assay. The assay is classed as cell-based. The following applies: Homo sapiens, 72 hours, YO-PRO-1 readout. The protocol: MDA-MB-231 Proliferation Assay
MDA-MB-231 cells were cultivated in DMEM High Glucose (4.5 g/L) with L-Glutamine (BioConcept, cat. no. 1-26F03-I) supplemented with 1% Na-pyruvate (Sigma, cat. no. S8636), 1% Penicillin-Streptomycin (BioConcept, cat. no. 4-01F00H), and 10% FBS (Sigma, cat. no. F9665) using standard techniques. Cells were seeded in black, clear-bottom 384 well plates for tissue culture (Greiner Bio-One, cat. no. 781091) at a density of 750 cells per well in 20 μL medium and the plates were incubated overnight at 37° C. with 5% CO2 prior to treatment. Experimental compounds were serially diluted in DMSO to 200× the desired final concentrations. The solutions were then diluted 1:40 with culture medium and 5 μL aliquots were mixed into the wells containing the cells. The final concentration of DMSO was 0.5%. The plates were incubated for 72 hours and cell numbers were then measured using YO-PRO™-1 Iodide (ThermoFisher Scientific, cat. no. Y3603) essentially as recommended by the manufacturer. […] The plates were incubated at room temperature in the dark for 30 minutes. Fluorescence intensity signals were then measured on a Synergy 4 reader (BioTek) using 485/20 nm and 530/25 nm filters for the excitation and emission, respectively. Relative proliferation values were calculated by normalizing the raw data using DMSO-treated cells (100% proliferation) and the signals obtained from cells that were evaluated at the time of compound addition (0% proliferation). The concentration-response data were fitted to a sigmoidal 4-parameter logistic model with the maximum constrained to 100%.

The target in the next assay is T1, recombinant human CLK3 (Homo sapiens, UniProt P49761).
T1 construct: purchased Thermo Fisher Scientific PV3826
The assay can be described thus: CLK3 kinase assay (LANCE Ultra). The assay is classed as biochemical. The following applies: 0.5 nM CLK3, 300 μM ATP, 3 hours at 30° C. The protocol: CLK3 kinase activity was measured using the LANCE® Ultra technology (PerkinElmer) essentially as recommended by the supplier. Briefly, 2.5 μL of test sample at 4× the desired final concentration in 4% DMSO were dispensed into white, low volume, round bottom, 384 well plates (Corning, cat. no. 4512). 5 μL of a mixture containing recombinant human CLK3 (Thermo Fisher Scientific, cat. no. PV3826) and the labeled peptide substrate ULight™-CREBtide (PerkinElmer, cat. no. TRF0107) prepared in 1.33× kinase buffer (Thermo Fisher Scientific, cat. no. PV3189) were then added. Finally, the reactions were started by adding 2.5 μL of a 4× solution of ATP in kinase buffer. The plates were sealed with adhesive foils and incubated for 3 hours at 30° C. in the dark. The final concentrations of CLK3, ULight™—CREBtide, and ATP were 0.5 nM, 50 nM, and 300 μM, respectively. 5 μL of 40 mM EDTA were then added to terminate the reactions. The Eu-anti-phospho-CREB antibody (PerkinElmer, cat. no. TRF0200) diluted in LANCE® detection buffer (PerkinElmer, cat. no. CR97) was then added to a final concentration of 2 nM and the reactions were incubated for 1 hour at room temperature in the dark. The signals were measured using a Synergy 4 reader (BioTek) with a 320/80 nm filter for the excitation and 620/10 nm and 665/8 nm filters for the donor and acceptor emission, respectively. […] IC50 values were calculated by fitting the concentration-response data to a sigmoidal 4-parameter logistic model.
A general note: TR-FRET usually uses a lanthanide donor and a delayed reading to cut background.

pIC50: −log10 of the molar value.

T1 sequence (P49761 whole entry): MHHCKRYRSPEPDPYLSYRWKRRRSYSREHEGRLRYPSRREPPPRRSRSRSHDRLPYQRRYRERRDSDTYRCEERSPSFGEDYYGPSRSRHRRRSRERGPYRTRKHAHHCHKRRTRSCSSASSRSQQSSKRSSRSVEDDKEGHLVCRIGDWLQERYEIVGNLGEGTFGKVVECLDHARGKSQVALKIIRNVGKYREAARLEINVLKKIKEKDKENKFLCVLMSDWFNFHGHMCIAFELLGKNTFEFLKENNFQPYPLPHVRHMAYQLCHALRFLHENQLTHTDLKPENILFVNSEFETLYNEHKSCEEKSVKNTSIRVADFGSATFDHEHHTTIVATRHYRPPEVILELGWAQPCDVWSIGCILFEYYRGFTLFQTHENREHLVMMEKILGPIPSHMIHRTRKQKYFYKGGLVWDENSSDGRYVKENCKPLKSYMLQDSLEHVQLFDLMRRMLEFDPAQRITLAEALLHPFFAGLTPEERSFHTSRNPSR

The term GI50 denotes the concentration at which growth is held to half of that of the control. The term pIC50 denotes the IC50 on a negative log10 scale, so that one unit is a factor of ten. As for `COCCO/N=C1\c2cc(Br)ccc2-c2ncnc(N)c2C1(C)C` [Example 80, (6Z)-8-bromo-6-(2-methoxyethoxyimino)-5,5-dimethyl-benzo[h]quinazolin-4-amine], in the assay with MDA-MB-231 cells, the GI50 is over 2 µM. At recombinant human CLK3, the negative logarithm of the IC50 (pIC50) is 7.29.

Consider `CO/N=C1\c2cc(O[C@H]3CC[C@H](N)CC3)sc2-c2ncnc(N)c2C1(C)C` [Example 36, (6Z)-8-(trans-4-aminocyclohexoxy)-6-methoxyimino-5,5-dimethyl-thieno[3,2-h]quinazolin-4-amine], for which, in the assay on MDA-MB-231 cells, the GI50 was 1.15 µM. The pIC50 at recombinant human CLK3 is 7.25.

For the compound `CC1(C)/C(=N/OC[C@@H]2CNC(=O)O2)c2cc(OCCO)ccc2-c2ncnc(N)c21` [Example 94, (5S)-5-[[(Z)-[4-amino-8-(2-hydroxyethoxy)-5,5-dimethyl-benzo[h]quinazolin-6-ylidene]amino]oxymethyl]oxazolidin-2-one], the 50% growth inhibitory concentration (GI50) with MDA-MB-231 cells is over 2 µM. In addition, the pIC50 at recombinant human CLK3 is 7.73.

Take `CN(C)CCO/N=C1\c2cc(O[C@H]3CC[C@H](N)CC3)ccc2-c2ncnc(N)c2C1(C)C` [Example 35, (6Z)-8-(trans-4-aminocyclohexoxy)-6-[2-(dimethylamino)ethoxyimino]-5,5-dimethyl-benzo[h]quinazolin-4-amine]: in the assay on MDA-MB-231 cells, the GI50 turned out to be 1.48 µM. Also, the pIC50 on recombinant human CLK3 was 6.84.

In the case of `COc1ccc2c(c1)/C(=N\OCCN)C(C)(C)c1c(N)ncnc1-2` [Example 58, (6Z)-6-(2-aminoethoxyimino)-8-methoxy-5,5-dimethyl-benzo[h]quinazolin-4-amine], the GI50 in the assay on MDA-MB-231 cells was over 2 µM. For the same compound, the pIC50 at recombinant human CLK3 was 7.04.

`CC1(C)/C(=N/OCCc2ccccc2)c2cc(O[C@H]3CC[C@@H](N)CC3)ccc2-c2ncnc(N)c21` [Example 106, (6Z)-8-(cis-4-aminocyclohexoxy)-5,5-dimethyl-6-(2-phenylethoxyimino)benzo[h]quinazoline-4-amine]: in the assay on MDA-MB-231 cells, the GI50 is 0.307 µM. The negative-log IC50 (pIC50) on recombinant human CLK3 was 7.63.

For `CC1(C)/C(=N/OCc2ccccc2)c2cc(O[C@H]3CC[C@H](N)CC3)ccc2-c2ncnc(N)c21` [Example 3, (6Z)-8-(trans-4-aminocyclohexoxy)-6-benzyloxyimino-5,5-dimethyl-benzo[h]quinazolin-4-amine], the GI50 in the assay on MDA-MB-231 cells was determined as 1.96 µM. For the same compound, the pIC50 on recombinant human CLK3 is 6.70.

For `CC1(C)/C(=N/O)c2cc(O[C@H]3CC[C@H](N)CC3)ccc2-c2ncnc(N)c21` [Example 2, (6Z)-4-amino-8-(trans-4-aminocyclohexoxy)-5,5-dimethyl-benzo[h]quinazolin-6-one oxime], in the assay with MDA-MB-231 cells, the GI50 turned out to be 0.742 µM. Also, the pIC50 on recombinant human CLK3 is 7.78.

As to `CC1(C)/C(=N/OCCCCF)c2cc(O[C@H]3CC[C@@H](N)CC3)ccc2-c2ncnc(N)c21` [Example 113, (6Z)-8-(cis-4-aminocyclohexoxy)-6-(4-fluorobutoxyimino)-5,5-dimethyl-benzo[h]quinazolin-4-amine], the GI50 with MDA-MB-231 cells amounted to 0.167 µM. For the same compound, the pIC50 on recombinant human CLK3 was 7.67.

Turning to `CC1(C)/C(=N/OCCN2CCCC2)c2cc(O[C@H]3CC[C@H](N)CC3)ccc2-c2ncnc(N)c21` [Example 28, (6Z)-8-(trans-4-aminocyclohexoxy)-5,5-dimethyl-6-(2-pyrrolidin-1-ylethoxyimino)benzo[h]quinazolin-4-amine], in the assay with MDA-MB-231 cells, the GI50 was over 2 µM. Also, the pIC50 at recombinant human CLK3 was 6.55.

Consider `COc1ccc2c(c1)/C(=N\OC[C@@H]1CNC(=O)C1)C(C)(C)c1c(N)ncnc1-2` [Example 72, (4S)-4-[[(Z)-(4-amino-8-methoxy-5,5-dimethyl-benzo[h]quinazolin-6-ylidene)amino]oxymethyl]pyrrolidin-2-one], for which the GI50 in the assay on MDA-MB-231 cells was over 2 µM. The negative-log IC50 (pIC50) on recombinant human CLK3 was 7.10.

With `CC1(C)/C(=N/OCCCS(C)(=O)=O)c2cc(O[C@H]3CC[C@@H](N)CC3)ccc2-c2ncnc(N)c21` [Example 110, (6Z)-8-(cis-4-aminocyclohexoxy)-5,5-dimethyl-6-(3-methylsulfonylpropoxyimino)benzo[h]quinazoline-4-amine], in the assay on MDA-MB-231 cells, the GI50 was over 2 µM. In addition, the pIC50 at recombinant human CLK3 was 7.50.

Consider `COCCO/N=C1\c2cc(O[C@H]3CC[C@@](C)(N)CC3)ccc2-c2ncnc(N)c2C1(C)C` [Example 103, (6Z)-8-(cis-4-amino-4-methyl-cyclohexoxy)-6-(2-methoxyethoxyimino)-5,5-dimethyl-benzo[h]quinazoline-4-amine], for which the GI50 in the assay with MDA-MB-231 cells came to 0.184 µM. The pIC50 at recombinant human CLK3 was 7.55.

For `CC1(C)/C(=N/OCCO)c2cc(Br)ccc2-c2ncnc(N)c21` [Example 86, 2-[(Z)-(4-amino-8-bromo-5,5-dimethyl-benzo[h]quinazolin-6-ylidene)amino]oxyethanol], the 50% growth inhibitory concentration (GI50) in the assay with MDA-MB-231 cells is over 2 µM. In addition, the pIC50 on recombinant human CLK3 was 7.20.

For the compound `CO/N=C1\c2cc(OC3CCNCC3)ccc2-c2ncnc(N)c2C1(C)C` [Example 66, (6Z)-6-methoxyimino-5,5-dimethyl-8-(4-piperidyloxy)benzo[h]quinazolin-4-amine], the GI50 with MDA-MB-231 cells worked out at 1.75 µM. Moreover, the pIC50 at recombinant human CLK3 was 7.89.

Take `CO/N=C1\c2cc(O[C@@H]3CC[C@@H](N)[C@@H](F)C3)ccc2-c2ncnc(N)c2C1(C)C` [Example 57, (6Z)-6-methoxyimino-5,5-dimethyl-8-[-(1R,3S,4R)-4-amino-3-fluoro-cyclohexoxy]benzo[h]quinazolin-4-amine]: the concentration for 50% growth inhibition (GI50) in the assay on MDA-MB-231 cells amounted to 0.207 µM. Besides, the pIC50 on recombinant human CLK3 was 8.56.

Consider `CO/N=C1/c2cc(O[C@H]3CC[C@H](N)CC3)ccc2-c2ncnc(N)c2C1(C)C` [Example 45, (6E)-8-(trans-4-aminocyclohexoxy)-6-methoxyimino-5,5-dimethyl-benzo[h]quinazolin-4-amine], for which the GI50 with MDA-MB-231 cells amounted to 1.46 µM. The pIC50 on recombinant human CLK3 is 6.98.

For the compound `CO/N=C1\c2cc(OC)cc(F)c2-c2ncnc(N)c2C1(C)C` [Example 77, (6Z)-10-fluoro-8-methoxy-6-methoxyimino-5,5-dimethyl-benzo[h]quinazolin-4-amine], the 50% growth inhibitory concentration (GI50) with MDA-MB-231 cells was over 2 µM. For the same compound, on recombinant human CLK3, the pIC50 is 7.07.

As for `CN1C[C@@H](CO/N=C2\c3cc(Cl)ccc3-c3ncnc(N)c3C2(C)C)OC1=O` [Example 52, (5S)-5-[[(Z)-(4-amino-8-chloro-5,5-dimethyl-benzo[h]quinazolin-6-ylidene)amino]oxymethyl]-3-methyl-oxazolidin-2-one], the GI50 in the assay on MDA-MB-231 cells was determined as 0.445 µM. Further, the pIC50 at recombinant human CLK3 is over 8.82.

On to `CC1(C)/C(=N/OCCN2CCCCC2)c2cc(O[C@H]3CC[C@H](N)CC3)ccc2-c2ncnc(N)c21` [Example 16, (6Z)-8-(trans-4-aminocyclohexoxy)-5,5-dimethyl-6-[2-(1-piperidyl)ethoxyimino]benzo[h]quinazolin-4-amine], for which, in the assay on MDA-MB-231 cells, the GI50 was over 2 µM. Further, the pIC50 on recombinant human CLK3 is 6.58.

Turning to `Nc1ncnc2c1C1(CCCC1)/C(=N/O)c1cc(O[C@H]3CC[C@@H](N)CC3)ccc1-2` [Example 104, 4-amino-8-(cis-4-minocyclohexoxy)spiro[benzo[h]quinazoline-5,1′-cyclopentane]-6-one oxime], in the assay on MDA-MB-231 cells, the GI50 was 0.0413 µM. On recombinant human CLK3, the pIC50 is 7.98.

Turning to `COCCO/N=C1\c2cc(O[C@H]3CC[C@@H](N)CC3)ccc2-c2ncnc(N)c2C12CCCC2` [Example 100, (6Z)-8-(cis-4-aminocyclohexoxy)-6-(2-methoxyethoxyimino)spiro[benzo[h]quinazoline-5,1′-cyclopentane]-4-amine], the GI50 with MDA-MB-231 cells was 0.0105 µM. For the same compound, the pIC50 at recombinant human CLK3 was 8.43.

For `CC1(C)/C(=N\OCCC#N)c2cc(O[C@H]3CC[C@H](N)CC3)ccc2-c2ncnc(N)c21` [Example 60, 3-[(E)-[4-amino-8-(trans-4-aminocyclohexoxy)-5,5-dimethyl-benzo[h]quinazolin-6-ylidene]amino]oxypropanenitrile], the GI50 in the assay with MDA-MB-231 cells was over 2 µM. The negative-log IC50 (pIC50) at recombinant human CLK3 was 6.94.

For the compound `C=C(c1ccc2c(c1)/C(=N/OC)C(C)(C)c1c(N)ncnc1-2)[C@H]1CC[C@H](N)CC1` [Example 47, (6E)-8-[1-(trans-4-aminocyclohexyl)vinyl]-6-methoxyimino-5,5-dimethyl-benzo[h]quinazolin-4-amine], in the assay with MDA-MB-231 cells, the GI50 was found to be 0.443 µM. Further, the negative logarithm of the IC50 (pIC50) on recombinant human CLK3 is 7.11.
